According to patent US7923445B2, “Methods for treatment of diseases related to activated lymphocytes” (Immune Control, Inc., priority 2006, dated 2011):

How the values were obtained:
TNF-α = assay: LPS-mediated cytokine production model, serum TNF-α; format: in vivo, CD1:ICR mice; details: for TNFα inhibition, IV versus IP administration: pre-dose time course, 10 mg/kg; for TNFα inhibition in dose-response study: IP, up to a dose of 5 mg/kg, pre-dose 1 hr
Excerpt: Bolus injection of lethal or sub-lethal doses of lipopolysaccharide (LPS; the major component of bacterial cell walls) results in a rapid and transient rise in serum cytokine levels (e.g. TNF-α) in mammals. This animal model was originally developed to mirror certain aspects of septic shock in humans; however, there is poor correlation between efficacy in LPS-rodent models and clinical efficacy. However, this model may be an effective first-line general inflammation model and could be useful in determining the anti-inflammatory potential of test compounds. A variety of clinically approved anti-inflammatory compounds, including glucocorticoids, NSAIDS and COX-2 inhibitors are extremely effective in this model. Compounds ICI-685 and ICI-735 were tested for their ability to inhibit LPS-stimulated TNF-α and IL-1β production.
Both ICI-685 and ICI-735 were formulated in water. For the time course study, both drugs were formulated at a concentration of 1 mg/ml and dosed 10 ml/kg to produce a dose of 10 mg/kg. For the dose-response study, drug was formulated at concentrations of 0.05, 0.2 and 0.5 mg/ml and dosed at a volume of 10 ml/kg to produce doses of 0.5, 2 and 5 mg/kg, respectively. Animals were dosed IV or IP.
CD1:ICR mice were obtained from Harlan (Indianapolis, Ind.) at 6 weeks of age. Animals were housed 5 per cage, kept on a 12 hr light dark cycle and fed food and water ad libitum. Animals were tested at 8-10 weeks of age.
Lipopolysaccharide (heat killed E. coli 0127:B5; Sigma Aldrich) was prepared in distilled water at a concentration of 0.025 mg/ml. LPS was dosed at a volume of 10 ml/kg (IP) to produce a final dose of 0.25 mg/kg (approximately 7.5 μg/mouse). Drugs were dosed prior to LPS administration as indicated elsewhere herein. Blood was collected by retro-orbital eye bleed 90 minutes after LPS administration. Serum was prepared from blood and TNF-α and IL-1β levels were measured by using the OPT-EIA mouse TNF-α and IL-1β ELISA kits (BD Biosciences) as per directions of the manufacturer.
The first study was designed to determine the optimal route of administration and the optimal pre-treatment time. Two pre-dose time course studies were conducted. The first (Study 1A) was conducted with 3 pre-dose time points (2, 6 and 18 hrs). The second was conducted at 0, 1 and 2 hr predose time points. For both studies, drug was dosed IP or IV.
Using data from the first study, a second study was conducted that was designed to measure dose-response activity of each compound. Compounds were tested at doses of 0, 2.0 and 5 mg/kg using the route and pre-treatment time that produced the best activity. […]
Using data from the first study, a second study was conducted that was designed to measure dose-response activity of each compound. Compounds were tested at doses of 0.5, 2.0 and 5 mg/kg using the route and pre-treatment time that produced the best activity.

[1] = system: Aspergillus fumigatus-based mouse asthma model; assay: Aspergillus fumigatus-based mouse asthma model, lung resistance; format: in vivo; details: intraperitoneally at a dose of 20 mg/ml
Procedure: Compounds of the invention were also tested for efficiacy in an asthma model.
A cohort of mice were administered intraperitoneal injections of Aspergillus fumigatus on days 0, 14, 26, 27, and 28. Lung resistance was tested on day 29 immediately following a tracheotomy/methacholine procedure. Animals receiving dexamethasone were administered dexamethasone on days 26, 27 and 28. Animals receiving a compound of the invention were administered the compound just hours before the lung resistance test. As a control, all test compounds, as well as dexamethasone, were also administered to mice in the absence of an A. fumigatus insult.

[2] = system: mice sensitized with collagen injections; assay: Clinical arthritis score in mice sensitized with collagen injections; format: in vivo
Procedure: FIGS. 26-28 illustrate the effect of various compounds of the invention on the clinical arthritis score of mice treated with various compounds of the invention.
Additional testing of the effectiveness of compounds ICI-685, ICI-735 and ICI-847 at higher and lower concentrations were conducted, as illustrated in FIG. 29.

Compound | TNFα inhibition, IV versus IP administration (TNF-α) | decreasing lung resistance, compared with dexamethasone [1] | TNFα inhibition in dose-response study (TNF-α) | clinical arthritis score, compared with dexamethasone ([2]; 30 mg/kg) | clinical arthritis score, compared with dexamethasone ([2]; orally at 10 mg/kg daily, for about 21 days)
CN(C)S(=O)(=O)c1ccc2c(c1)N(CCCN1CCN(CCN)CC1)c1ccccc1S2 [ICI-715] | IV administration of ICI-715 produced slightly better inhibition than IV administration |  |  |  | 
NCC(=O)NCCN1CCN(CCCN2c3ccccc3Sc3ccc(C(F)(F)F)cc32)CC1 [ICI-735] |  | at least as effective as dexamethasone |  |  | 
FC(F)(F)c1ccc2c(c1)N(CCCC1CCNCC1)c1ccccc1S2 [ICI-824] | IP administration produced slightly better inhibition than IV administration |  | ineffective |  | 
NCCCN1CCC(CCCN2c3ccccc3Sc3ccc(C(F)(F)F)cc32)CC1 [ICI-847] |  | at least as effective as dexamethasone |  | as effective for the length of the study as is dexamethasone | as effective as dexamethasone
NCCN1CCN(CCCCN2c3ccccc3Sc3ccc(C(F)(F)F)cc32)CC1 [ICI-953] | IP administration produced slightly better inhibition than IV administration |  | ineffective |  | 
NCC(=O)NCCN1CCN(CCCCN2c3ccccc3Sc3ccc(C(F)(F)F)cc32)CC1 [ICI-954] | IP administration produced slightly better inhibition than IV administration |  | ineffective |  | 
